Measured values as given in patent US20050165030A1, “Pharmaceutical compositions comprising a multifunctional phosphodiesterase inhibitor and an adenosine uptake inhibitor” (priority 2001, published 2005).
Read-outs that look alike come from different tables or passages of the source.

Columns and labels:
[1] = tested on: adenosine uptake into washed human erythrocytes; assay: [3H]adenosine uptake into washed erythrocytes; assay type: cell-based
Description: Washed erythrocytes (wRBC) were prepared as follows.

[2] = blood concentration during intravenous infusion; assay type: in vivo, rabbit; conditions: cilostazol 0.225 mg/kg bolus + 0.0175 mg/kg/min i.v.; dipyridamole 20 μg/kg/min i.v.
Description: Sixty minutes after the surgery, injection of vehicle or the drug combination was initiated. After 20 minutes, the gastrocnemius muscle of the left hindlimb was stimulated throughout the rest of the experiment. Twenty minutes after the stimulation (40 minute time point in FIG. 15), the left femoral artery was clamped for 20 minutes to induce ischemia and then released to allow reperfusion. The regional blood flow was determined by the injection at 0, 20, 40, 60, and 80 minutes of blue-green, yellow-green, orange, red and crimson fluorescent microspheres.

[3] = tested on: PDE3; conditions: Liu et al., 2000; read-out: potency for inhibition of PDE3; cited from earlier work
[4] = tested on: isolated rabbit Langendorff hearts; conditions: concentrations below 1 μM, previous studies; cited from earlier work
[5] = tested on: isolated rabbit Langendorff hearts; assay: cardiac function of isolated rabbit Langendorff hearts
Description: This study was conducted in accordance with the “Guide for the Care And Use of Laboratory Animals”, published by the National Research Council, 1996, Washington D.C., and approved by the Institutional Animal Care and Use Committee of Otsuka Maryland Research Institute, LLC. […] A tracheotomy was performed and the animals were intubated. […] The respiratory rate was adjusted to keep arterial blood PO2, PCO2 and pH in the physiological range. […] Hearts were exposed through a mid-line incision of the chest, and quickly excised by an incision at the base of the heart and put into ice-cold Krebs-Henseleit bicarbonate buffer. The heart was then attached to a Langendorff apparatus by the aortic root, and perfused with non-recirculating Krebs-Henseleit buffer at a constant pressure of 75 mmHg. The perfusate was bubbled with 95% O2 and 5% CO2 gas mixture, and the bubbling rate was adjusted to maintain physiological pH (7.35-7.45). Perfusate temperature was maintained at 38° C. by a circulating waterjacket surrounding the buffer reservoirs. The heart was also maintained at 38° C. via a water-jacketed housing in which it was suspended. The open top of the jacket was covered with a piece of parafilm to maintain the humidity and temperature. The pulmonary artery around the right side of the aortic root was cannulated for collecting coronary effluent and for coronary flow rate measurement with a graduated cylinder. […] The pressure transducer was connected to a Grass Chart Recorder (Model 7) to record left ventricular pressure and its first derivative (dp/dt), and heart rate. Hearts with left ventricular developing pressure less than 85 mmHg at the end of the 15-min equilibrium period were not included in the study. The cardiac function indexes measured were LVDP (left ventricular developed pressure), dp/dtmax (the maximal value of the first derivative of the LVDP), heart rate, and coronary flow. […] Measurements for cardiac function were taken at the end of each 5 min drug treatment. The effect of drug treatment is expressed as the percent change of values before and after each drug treatment: % Change from Baseline=[(Value after drug−Value before drug)/Value before drug]×100 Statistical Analysis

[6] = tested on: adenosine uptake; conditions: cited from earlier work; for IC50: read-out: IC50 of adenosine uptake inhibition
[7] = tested on: human washed platelets; assay: collagen-induced aggregation of washed platelets; assay type: cell-based; conditions: for IC50: Homo sapiens, Platelet; for inhibitory effect on washed platelet aggregation: alone: dipyridamole 1, 3 or 10 μM, cilostazol 30 or 100 nM, adenosine 1 μM; for inhibition of washed platelet aggregation: single agent + 1 μM adenosine (dipyridamole 1, 3, 10 μM; cilostazol 30 or 100 nM)
Description: Aggregation was quantified by the change in light transmission using an AG-10 Aggregation Analyzer (Kowa, Japan). Washed platelets were maintained at room temperature and the study was performed within 3 hours following blood collection. Cilostazol was dissolved in DMSO and adenosine was dissolved in water. […] Drug or vehicle (DMSO) was then added (0.4 μl) and incubated for another 3 minutes. […] The overall time of aggregation recorded was 15 minutes.

[8] = tested on: whole blood platelet aggregation; assay: ex vivo whole blood platelet aggregation, clinical crossover study; assay type: in vivo, human; conditions: alone: cilostazol 100 mg, dipyridamole 200 mg
Description: On study day 4, subjects received one 200 mg tablet of dipyridamole. […] The platelet aggregation was induced by the addition of collagen (final concentration of 0.3 μg/ml, Nycomed Arzneimittel, Munchen, Germany). The percentage aggregation was recorded at each time point. To compare the effect of drug treatments, the aggregation at 2-hour and 4-hour is normalized as a percentage to the values prior to dosing.

[9] = tested on: platelets in human whole blood; assay: whole blood platelet aggregation in vitro (collagen); assay type: cell-based; conditions: for inhibition of platelet aggregation: alone: cilostazol 0.3-3 μM, dipyridamole 1 or 3 μM, 0.1 or 0.3 μg/ml collagen; for effect on platelet aggregation in whole blood: alone: cilostazol 10 or 30 μM, dipyridamole 0.1, 0.3, 1 or 3 μM, 0.5 μg/ml collagen
Description: The electrodes were then placed in the cuvette and the sample was allowed to incubate at 37° C. while the instrument was calibrated. […] Dipyridamole was diluted in ethanol (EtOH) to a stock concentration of 100 mM. […] The suspension was allowed to incubate for 3 minutes before collagen was added. […] […] Data are expressed as percent of the values detected in the absence of any inhibition.

[10] = blood concentration after single oral dose; assay type: in vivo, human; conditions: 2 and 4 hours after a single dose
[11] = tested on: adenosine uptake into CHO cells over-expressing functional human A2A receptors; assay: [3H]adenosine uptake into CHO cells over-expressing human A2A receptors; assay type: cell-based; conditions: compared with platelets and erythrocytes, data not shown
[12] = 2 and 4 hours after a single dose of 200 mg, previous pharmacokinetic data; cited from earlier work
[13] = tested on: whole blood; assay: adenosine concentration in plasma of collagen-stimulated whole blood (HPLC); assay type: cell-based, human; conditions: dipyridamole 1 μM, 5 minutes after 2 μg/ml collagen, n=3
Description: Blood was drawn and mixed with recombinant human huridin (100 U/ml). The same procedure for platelet aggregation was used to stimulate these platelets with collagen (2 μg/ml). After a 5-minute incubation, 500 μl of WB were mixed quickly with 500 μl of ice-cold saline. The cells were spun at 20,000×g for 4 minutes at 4° C. Supernatant (600 μl) was first mixed with 300 μl PCA (2.5 N) and then neutralized with 300 μl of KHCO3 (2.5 M). Finally, the mixture was centrifuged at 20,000×g for 15 minutes at 4° C. The adenosine concentration in the supernatants was measured using reverse-phase high performance liquid chromatography (HPLC, Waters Alliance 2690) with a Hypersil 3μ C18 column (150 mm×4.6 mm) and a gradient from 5 to 20% methanol in 20 mM KH2PO4. Adenosine was detected using a diode array detector (Water 996) with an absorbance change at 258 nm and quantified by comparison of retention times and peak height with those of a known external standard. Quantification was performed using Waters Millennium 32 Client/Server software.

[14] = tested on: adenosine A2A-expressing Chinese hamster ovary (CHO) cells; assay: CRE-luciferase assay (intracellular cAMP) in CHO cells expressing human adenosine A2A receptor; assay type: cell-based; conditions: range 0.5 μM to 10 μM
Description: The level of luciferase expression reflects the concentration of intracellular cAMP. […] Therefore, the activation of the receptors would be reflected by luciferase expression, where the expression level can be measured by the luciferase activity assay. Co-transfection of the luciferase reporter vector with the vectors containing adenosine A2A receptors was carried out by calcium phosphate precipitation into Chinese hamster ovary (CHO) cells. Stable transfectants were selected with 1.0 mg/ml G418 (Life Technologies) for 12 days. The cell clones over-expressing functional adenosine A2A receptors were determined by luciferase expression under the stimulation of adenosine.
The next day, the cells were washed once with F12K medium supplemented with 0.5% FCS and then incubated with 100 μl of the medium only (basal) or medium plus test agents for 4 hours at 37° C. After equilibrating to room temperature, 100 μl of detection substrate (Bright-Glo™ luciferase assay system, Promega, Madison, Wis.) were added to each well. The luciferase activity was measured after 5 minutes using a Mediators PhL luminescence plate reader (ImmTech, New Windsor, Md.). The value of luminescence (arbitrary unit) detected during half a second was taken as luciferase activity.

[15] = dipyridamole 0.3, 1 or 3 μM with cilostazol

In the case of `O=C1CCc2cc(OCCCCc3nnnn3C3CCCCC3)ccc2N1` [cilostazol, 6-[4-(1-cyclohexyl-1H-tetrazol-5yl)butoxy]-3,4-dihydro-2(1H)-quinolinone], the IC50 ([1]; Homo sapiens, Erythrocyte, washed erythrocytes, n=3, read-out: IC50 of adenosine uptake inhibition) is listed as roughly 7000 nM, the blood concentration [2] is listed as “about 1 μM” and the IC50 [3] is listed as 320 nM. The “effects on cardiac function” value [4] was “minimal effects”, the coronary flow ([5]; cilostazol 3 or 10 μM) was “significantly increased” and the IC50 ([6]; various cells (rabbit cardiac myocytes, human vascular smooth muscle, endothelial cells), Liu et al., 2000) was 5000 to 10000 nM. For the same molecule, the “effect on collagen-induced platelet aggregation” value ([7]; 1 μM, by itself) was “little effect”, the IC50 ([7]; read-out: IC50 of Cilostazol on Platelet Aggregation, +Adenosine (1 μM)) was 380 ± 50 nM and the IC50 ([7]; read-out: IC50 of Cilostazol on Platelet Aggregation, +Adenosine + Dipyridamole (1 μM)) was 170 ± 40 nM. It also gave an IC50 ([7]; read-out: IC50 of Cilostazol on Platelet Aggregation, +Adenosine + Dipyridamole (3 μM)) of 110 nM, an IC50 ([7]; read-out: IC50 of Cilostazol on Platelet Aggregation, +Adenosine + Dipyridamole (10 μM)) of 10 ± 10 nM and an IC50 ([7]; read-out: IC50 of Cilostazol on Platelet Aggregation, cilostazol alone, washed platelets, collagen) of 2660 ± 410 nM. The “inhibitory effect on washed platelet aggregation” value [7] was “no significant inhibitory effect”, the “effect on collagen-induced platelet aggregation” value ([7]; cilostazol 1 μM combined with adenosine 1 μM) was “completely inhibited” and the “inhibition of washed platelet aggregation” value [7] was “significant differences from controls”. The “inhibition of ex vivo platelet aggregation” value [8] was “neither cilostazol nor dipyridamole alone inhibited”, the “inhibition of platelet aggregation” value [9] was “did not cause any significant inhibition” and the “effect on platelet aggregation in whole blood” value [9] was “did not have a significant effect”. The blood concentration [10] was “about 2 μM”.

For `Nc1ncnc2c1ncn2[C@@H]1O[C@H](CO)[C@@H](O)[C@H]1O` [adenosine], the “effect on collagen-induced platelet aggregation” value ([7]; 1 μM, by itself) was “little effect” and the “inhibitory effect on washed platelet aggregation” value [7] was “no effect”.

In the case of `Cc1[nH]c(=O)c(C#N)cc1-c1ccncc1` [milrinone], the “effect on adenosine uptake” value ([1]; erythrocytes) is listed as “virtually no effect”, the “inhibition of [3H]adenosine uptake” value [11] is listed as “no effect” and the “inhibitory effect on adenosine uptake” value ([6]; at concentrations as high as 100 μM, Liu et al., 2000) is listed as “no significant inhibitory effect”.

For `OCCN(CCO)c1nc(N2CCCCC2)c2nc(N(CCO)CCO)nc(N3CCCCC3)c2n1` [dipyridamole], the blood concentration [2] is listed as “about 1 μM”, the blood concentration [12] is listed as “about 2 μM” and the “effect on cardiac function” value ([5]; dipyridamole 0.3, 1 or 3 μM alone) is listed as “no significant effect”. The “cilostazol-induced increase of cardiac contractility” value [5, 15] was “significantly reduced”, the “cilostazol-induced increase of heart rate” value [5, 15] was “significantly reduced” and the “cilostazol-induced increase in coronary flow” value ([5]; dipyridamole 1 and 3 μM with cilostazol 10 μM) was “augmented”. For the same molecule, the IC50 [6] was 10 nM, the “inhibitory effect on washed platelet aggregation” value [7] was “no significant inhibitory effect” and the “inhibition of washed platelet aggregation” value [7] was “enhanced the effect of dipyridamole significantly”. For the same molecule, the “inhibition of ex vivo platelet aggregation” value [8] was “neither cilostazol nor dipyridamole alone inhibited”, the “adenosine levels in whole blood plasma” value [13] was 5.916 ± 0.641 µM and the “dipyridamole concentration of peak enhancement of cilostazol effect on luciferase activity” value [14] was “about 5 μM”. The “inhibition of platelet aggregation” value [9] was “did not cause any significant inhibition”, the “effect on platelet aggregation in whole blood” value [9] was “did not have a significant effect” and the platelet aggregation ([9]; dipyridamole 1 μM, 2 μg/ml collagen) was “not affected”.

With `Nc1nc(NCCc2ccc(O)cc2)nc2nc(-c3ccco3)nn12` [ZM241385] the “effect on the synergistic effect of dipyridamole and cilostazol on whole blood aggregation” value ([9]; ZM241385 0.1 μM, n=8) was “reverted back to the basal level of cilostazol alone”.
